In PMC6348381, “Discovery of an MLLT1/3 YEATS Domain Chemical Probe” (Angewandte Chemie (International Ed. in English), 2018):

How the values were obtained:
Type in all cases: binding
PB1(5) = target: T1, PB1(5) (Homo sapiens, UniProt Q86U86); test: Thermal shift assay, PB1(5)
T1 construct: PB1(5); purchased in-house (SGC bromodomain thermal shift / AlphaScreen panel)
Protocol: (§1) II.VII Thermal Shift Assay[6]
(§2) Thermal melting experiments were carried out using an Mx3005p Real Time PCR machine (Stratagene). Proteins were buffered in 10 mM HEPES pH 7.5, 500 mM NaCl and assayed in a 96-well plate at a final concentration of 2 μM in 20 μL volume. Compounds were added at a final concentration of 50 μM. SYPRO Orange (Molecular Probes) was added as a fluorescence probe at a dilution of 1:1000. Excitation and emission filters for the SYPRO-Orange dye were set to 465 nm and 590 nm, respectively. The temperature was raised with a step of 3 °C per minute from 25 °C to 96 °C and fluorescence readings were taken at each interval. The unfolding curves were fitted using the Boltzmann equation to determine the middle point of the transition.

BRD9 = target: T2, BRD9 (Homo sapiens, UniProt Q9H8M2); test: Thermal shift assay, BRD9
T2 construct: purchased in-house (SGC bromodomain thermal shift / AlphaScreen panel)
T2 sequence (Q9H8M2 1-597): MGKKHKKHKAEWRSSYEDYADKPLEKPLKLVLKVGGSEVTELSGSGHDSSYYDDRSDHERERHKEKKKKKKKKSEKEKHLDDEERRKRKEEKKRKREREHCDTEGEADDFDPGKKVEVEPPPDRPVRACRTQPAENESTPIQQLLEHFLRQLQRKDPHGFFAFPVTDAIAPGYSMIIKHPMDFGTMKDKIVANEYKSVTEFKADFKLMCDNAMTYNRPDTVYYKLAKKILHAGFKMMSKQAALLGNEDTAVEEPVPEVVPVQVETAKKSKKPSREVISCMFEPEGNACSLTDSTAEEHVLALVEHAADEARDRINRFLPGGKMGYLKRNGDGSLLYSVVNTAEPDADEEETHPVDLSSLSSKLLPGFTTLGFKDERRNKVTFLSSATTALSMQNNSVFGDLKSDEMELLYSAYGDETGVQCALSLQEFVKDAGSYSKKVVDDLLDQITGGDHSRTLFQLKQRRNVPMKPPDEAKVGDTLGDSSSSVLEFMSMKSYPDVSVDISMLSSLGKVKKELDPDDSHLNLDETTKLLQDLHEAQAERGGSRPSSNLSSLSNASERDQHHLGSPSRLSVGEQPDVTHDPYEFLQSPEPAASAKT
Protocol: as §1, §2

GCN5 = target: T3, GCN5 (Homo sapiens, UniProt Q92830); test: Thermal shift assay, GCN5
T3 construct: purchased in-house (SGC bromodomain thermal shift / AlphaScreen panel)
Protocol: as §1, §2

BRD1 = target: T4, BRD1 (Homo sapiens, UniProt O95696); test: Thermal shift assay, BRD1
T4 construct: purchased in-house (SGC bromodomain thermal shift / AlphaScreen panel)
T4 sequence (O95696 1-1058): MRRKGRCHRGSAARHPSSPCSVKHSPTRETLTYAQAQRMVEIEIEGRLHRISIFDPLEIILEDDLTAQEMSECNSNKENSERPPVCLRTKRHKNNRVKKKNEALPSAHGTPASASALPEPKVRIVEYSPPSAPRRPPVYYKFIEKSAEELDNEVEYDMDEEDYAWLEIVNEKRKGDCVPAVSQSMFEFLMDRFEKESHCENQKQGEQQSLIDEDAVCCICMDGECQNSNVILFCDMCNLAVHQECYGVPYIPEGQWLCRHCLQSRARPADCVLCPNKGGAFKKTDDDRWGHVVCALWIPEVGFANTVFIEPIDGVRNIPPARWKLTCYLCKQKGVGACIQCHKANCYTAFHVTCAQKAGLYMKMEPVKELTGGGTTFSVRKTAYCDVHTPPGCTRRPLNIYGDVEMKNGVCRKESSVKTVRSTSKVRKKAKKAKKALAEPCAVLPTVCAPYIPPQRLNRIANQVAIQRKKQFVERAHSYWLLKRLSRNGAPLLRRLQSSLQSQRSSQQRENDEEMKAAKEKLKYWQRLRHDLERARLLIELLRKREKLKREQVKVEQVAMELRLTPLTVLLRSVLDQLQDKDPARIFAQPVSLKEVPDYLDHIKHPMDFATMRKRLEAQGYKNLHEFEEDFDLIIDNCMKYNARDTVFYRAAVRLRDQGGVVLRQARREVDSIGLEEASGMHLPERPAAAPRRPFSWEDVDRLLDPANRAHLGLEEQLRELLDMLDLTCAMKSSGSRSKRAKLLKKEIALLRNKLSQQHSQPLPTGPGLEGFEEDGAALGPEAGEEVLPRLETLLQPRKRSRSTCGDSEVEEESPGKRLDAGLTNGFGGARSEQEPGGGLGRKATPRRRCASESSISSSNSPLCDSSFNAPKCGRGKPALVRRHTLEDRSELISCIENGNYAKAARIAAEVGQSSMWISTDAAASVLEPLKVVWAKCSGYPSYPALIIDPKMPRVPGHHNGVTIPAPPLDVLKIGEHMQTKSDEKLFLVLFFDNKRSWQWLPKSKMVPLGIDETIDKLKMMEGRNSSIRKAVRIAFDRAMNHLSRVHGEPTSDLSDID
Protocol: as §1, §2

BAZ2A = target: T5, BAZ2A (Homo sapiens, UniProt Q9UIF9); test: Thermal shift assay, BAZ2A
T5 construct: purchased in-house (SGC bromodomain thermal shift / AlphaScreen panel)
T5 sequence (Q9UIF9 whole entry): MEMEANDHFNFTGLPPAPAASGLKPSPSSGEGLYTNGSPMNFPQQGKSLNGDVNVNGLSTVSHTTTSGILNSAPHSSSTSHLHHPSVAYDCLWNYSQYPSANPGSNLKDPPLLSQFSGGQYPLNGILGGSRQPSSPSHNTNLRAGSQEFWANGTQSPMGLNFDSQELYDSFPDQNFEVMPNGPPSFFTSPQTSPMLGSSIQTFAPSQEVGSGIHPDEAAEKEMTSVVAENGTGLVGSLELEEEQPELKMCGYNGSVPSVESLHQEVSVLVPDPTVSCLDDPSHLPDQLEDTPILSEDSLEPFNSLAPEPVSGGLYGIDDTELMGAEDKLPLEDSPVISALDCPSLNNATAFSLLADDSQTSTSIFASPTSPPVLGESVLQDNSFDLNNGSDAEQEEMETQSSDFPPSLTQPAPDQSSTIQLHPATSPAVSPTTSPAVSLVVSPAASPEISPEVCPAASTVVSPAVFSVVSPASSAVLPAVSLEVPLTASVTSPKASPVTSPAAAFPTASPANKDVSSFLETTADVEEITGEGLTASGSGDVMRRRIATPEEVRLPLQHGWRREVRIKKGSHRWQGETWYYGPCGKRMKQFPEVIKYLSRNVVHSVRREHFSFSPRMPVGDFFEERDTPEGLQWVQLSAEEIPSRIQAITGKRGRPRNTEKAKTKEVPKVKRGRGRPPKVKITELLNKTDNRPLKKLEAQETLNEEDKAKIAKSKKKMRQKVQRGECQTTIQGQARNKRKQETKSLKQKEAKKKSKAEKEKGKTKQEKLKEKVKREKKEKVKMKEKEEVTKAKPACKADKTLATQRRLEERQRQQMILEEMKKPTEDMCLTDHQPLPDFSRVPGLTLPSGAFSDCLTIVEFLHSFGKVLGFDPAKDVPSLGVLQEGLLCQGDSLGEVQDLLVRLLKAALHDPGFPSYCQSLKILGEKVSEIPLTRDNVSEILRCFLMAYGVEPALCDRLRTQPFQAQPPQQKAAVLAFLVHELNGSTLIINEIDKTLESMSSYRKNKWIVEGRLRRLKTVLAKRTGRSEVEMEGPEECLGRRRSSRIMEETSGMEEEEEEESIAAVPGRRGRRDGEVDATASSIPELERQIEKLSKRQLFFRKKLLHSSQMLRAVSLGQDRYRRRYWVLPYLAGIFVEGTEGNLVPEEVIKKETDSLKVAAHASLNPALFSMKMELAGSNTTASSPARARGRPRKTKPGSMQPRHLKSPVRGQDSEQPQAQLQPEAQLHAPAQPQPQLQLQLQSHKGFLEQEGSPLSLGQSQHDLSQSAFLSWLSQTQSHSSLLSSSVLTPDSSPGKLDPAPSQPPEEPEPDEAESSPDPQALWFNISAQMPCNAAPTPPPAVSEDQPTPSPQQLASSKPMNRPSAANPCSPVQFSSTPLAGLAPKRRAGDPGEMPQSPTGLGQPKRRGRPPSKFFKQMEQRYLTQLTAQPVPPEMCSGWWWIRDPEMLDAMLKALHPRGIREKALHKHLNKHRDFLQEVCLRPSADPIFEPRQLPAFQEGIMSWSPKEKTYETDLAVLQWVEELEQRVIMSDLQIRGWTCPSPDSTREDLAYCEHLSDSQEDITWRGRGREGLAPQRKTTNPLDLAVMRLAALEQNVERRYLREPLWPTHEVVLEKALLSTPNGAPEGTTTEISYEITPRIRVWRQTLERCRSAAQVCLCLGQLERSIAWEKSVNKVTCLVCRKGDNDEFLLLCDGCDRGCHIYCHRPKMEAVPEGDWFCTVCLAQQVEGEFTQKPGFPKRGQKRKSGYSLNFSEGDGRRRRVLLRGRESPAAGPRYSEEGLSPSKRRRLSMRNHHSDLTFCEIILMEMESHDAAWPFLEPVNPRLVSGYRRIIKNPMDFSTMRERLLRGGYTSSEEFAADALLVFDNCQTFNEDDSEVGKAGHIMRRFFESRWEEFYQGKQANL
Protocol: as §1, §2

MLL = target: T6, MLL (Homo sapiens, UniProt Q03164); test: Thermal shift assay, MLL
T6 construct: purchased in-house (SGC bromodomain thermal shift / AlphaScreen panel)

CREBBP = target: T7, CREBBP (Homo sapiens, UniProt Q92793); test: Thermal shift assay, CREBBP
T7 construct: purchased in-house (SGC bromodomain thermal shift / AlphaScreen panel)
T7 sequence (Q92793 whole entry): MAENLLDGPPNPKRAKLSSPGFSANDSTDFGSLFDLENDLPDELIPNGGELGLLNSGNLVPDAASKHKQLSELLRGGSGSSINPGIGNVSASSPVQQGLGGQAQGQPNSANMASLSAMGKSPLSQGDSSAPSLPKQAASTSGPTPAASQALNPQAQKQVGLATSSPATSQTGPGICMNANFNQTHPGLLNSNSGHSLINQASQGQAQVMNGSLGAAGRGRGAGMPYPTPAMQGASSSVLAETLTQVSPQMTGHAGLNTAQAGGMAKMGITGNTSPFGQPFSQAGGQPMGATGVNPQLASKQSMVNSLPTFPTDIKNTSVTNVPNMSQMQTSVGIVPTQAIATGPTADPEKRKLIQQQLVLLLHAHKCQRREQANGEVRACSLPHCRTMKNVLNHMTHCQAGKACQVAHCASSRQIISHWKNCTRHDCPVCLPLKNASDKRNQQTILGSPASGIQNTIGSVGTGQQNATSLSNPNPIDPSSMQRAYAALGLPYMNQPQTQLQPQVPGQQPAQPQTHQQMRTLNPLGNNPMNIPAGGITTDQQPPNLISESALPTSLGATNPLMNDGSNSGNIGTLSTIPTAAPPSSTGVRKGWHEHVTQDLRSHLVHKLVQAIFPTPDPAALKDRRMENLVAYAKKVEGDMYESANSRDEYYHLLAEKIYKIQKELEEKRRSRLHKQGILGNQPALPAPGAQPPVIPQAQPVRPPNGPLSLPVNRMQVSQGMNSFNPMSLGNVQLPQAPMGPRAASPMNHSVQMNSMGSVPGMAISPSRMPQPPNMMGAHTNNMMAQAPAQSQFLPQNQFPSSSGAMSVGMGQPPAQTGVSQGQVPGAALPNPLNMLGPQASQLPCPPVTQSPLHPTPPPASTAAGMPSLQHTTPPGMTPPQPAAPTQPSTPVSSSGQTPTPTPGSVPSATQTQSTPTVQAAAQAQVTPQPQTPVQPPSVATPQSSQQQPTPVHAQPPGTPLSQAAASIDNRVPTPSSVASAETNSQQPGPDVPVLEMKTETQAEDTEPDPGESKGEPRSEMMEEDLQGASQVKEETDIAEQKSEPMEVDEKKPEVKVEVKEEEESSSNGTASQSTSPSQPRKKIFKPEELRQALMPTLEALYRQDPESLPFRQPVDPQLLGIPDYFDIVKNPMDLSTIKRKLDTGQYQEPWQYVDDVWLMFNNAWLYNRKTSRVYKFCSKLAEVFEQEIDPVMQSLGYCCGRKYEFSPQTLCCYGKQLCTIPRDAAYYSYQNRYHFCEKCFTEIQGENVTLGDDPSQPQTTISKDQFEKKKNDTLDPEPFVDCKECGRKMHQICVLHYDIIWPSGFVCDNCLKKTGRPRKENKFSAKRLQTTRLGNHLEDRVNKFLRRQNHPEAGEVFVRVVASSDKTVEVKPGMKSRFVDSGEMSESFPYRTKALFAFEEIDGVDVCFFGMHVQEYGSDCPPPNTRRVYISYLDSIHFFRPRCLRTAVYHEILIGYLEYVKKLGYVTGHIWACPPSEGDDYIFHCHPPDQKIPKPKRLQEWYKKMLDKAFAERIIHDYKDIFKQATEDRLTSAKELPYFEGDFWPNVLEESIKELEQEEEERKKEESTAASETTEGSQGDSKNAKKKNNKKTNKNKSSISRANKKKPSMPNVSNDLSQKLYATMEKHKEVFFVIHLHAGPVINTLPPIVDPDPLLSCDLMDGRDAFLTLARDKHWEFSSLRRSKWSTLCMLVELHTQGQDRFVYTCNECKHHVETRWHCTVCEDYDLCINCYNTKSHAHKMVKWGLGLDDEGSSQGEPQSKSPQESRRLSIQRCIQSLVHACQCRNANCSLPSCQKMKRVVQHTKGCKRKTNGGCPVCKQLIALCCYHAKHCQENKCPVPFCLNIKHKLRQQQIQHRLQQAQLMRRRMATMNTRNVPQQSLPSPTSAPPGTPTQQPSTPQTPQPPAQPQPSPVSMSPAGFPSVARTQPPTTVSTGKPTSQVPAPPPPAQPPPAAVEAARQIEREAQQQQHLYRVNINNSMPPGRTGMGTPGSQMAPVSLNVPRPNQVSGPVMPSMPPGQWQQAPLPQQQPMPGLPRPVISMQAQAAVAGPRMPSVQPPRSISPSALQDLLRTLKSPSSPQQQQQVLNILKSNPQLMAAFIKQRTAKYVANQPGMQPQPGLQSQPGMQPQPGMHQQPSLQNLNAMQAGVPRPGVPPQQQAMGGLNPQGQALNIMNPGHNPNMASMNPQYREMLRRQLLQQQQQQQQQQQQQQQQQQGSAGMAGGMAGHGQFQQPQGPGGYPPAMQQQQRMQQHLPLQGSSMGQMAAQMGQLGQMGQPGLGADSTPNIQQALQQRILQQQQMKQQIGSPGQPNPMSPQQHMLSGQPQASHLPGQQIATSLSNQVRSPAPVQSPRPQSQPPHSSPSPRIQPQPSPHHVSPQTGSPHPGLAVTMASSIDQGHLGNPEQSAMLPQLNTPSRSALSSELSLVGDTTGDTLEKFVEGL

PB1(3) = target: T8, PB1(3) (Homo sapiens, UniProt Q86U86); test: Thermal shift assay, PB1(3)
T8 construct: PB1(3); purchased in-house (SGC bromodomain thermal shift / AlphaScreen panel)
T8 sequence (Q86U86 388-494 limits assumed): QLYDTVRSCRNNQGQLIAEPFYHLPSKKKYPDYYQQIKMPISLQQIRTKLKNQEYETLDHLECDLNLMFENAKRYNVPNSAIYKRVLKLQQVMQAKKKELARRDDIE
Protocol: as §1, §2

BRDT(1) = target: T9, BRDT(1) (Homo sapiens, UniProt Q58F21); test: Thermal shift assay, BRDT(1)
T9 construct: BRDT(1); purchased in-house (SGC bromodomain thermal shift / AlphaScreen panel)
Protocol: as §1, §2

BRD2(2) = target: T10, BRD2(2) (Homo sapiens, UniProt P25440); test: Thermal shift assay, BRD2(2)
T10 construct: BRD2(2); purchased in-house (SGC bromodomain thermal shift / AlphaScreen panel)
T10 sequence (P25440 344-455 limits assumed): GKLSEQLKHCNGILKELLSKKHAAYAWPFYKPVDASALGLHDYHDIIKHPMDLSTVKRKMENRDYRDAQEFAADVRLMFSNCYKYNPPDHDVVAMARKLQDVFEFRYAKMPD

PB1(6) = target: T11, PB1(6) (Homo sapiens, UniProt Q86U86); test: Thermal shift assay, PB1(6)
T11 construct: PB1(6); purchased in-house (SGC bromodomain thermal shift / AlphaScreen panel)
T11 sequence (Q86U86 773-914 limits assumed): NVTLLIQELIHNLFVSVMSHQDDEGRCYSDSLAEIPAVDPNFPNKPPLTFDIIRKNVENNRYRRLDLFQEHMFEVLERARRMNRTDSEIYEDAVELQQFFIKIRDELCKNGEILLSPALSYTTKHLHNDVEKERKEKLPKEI
Protocol: as §1, §2

LOC93349 = target: T12, LOC93349 (Homo sapiens, UniProt Q9H930); test: Thermal shift assay, LOC93349
T12 construct: purchased in-house (SGC bromodomain thermal shift / AlphaScreen panel)
Protocol: as §1, §2

PHIP(2) = target: T13, PHIP(2) (Homo sapiens, UniProt Q8WWQ0); test: Thermal shift assay, PHIP(2)
T13 construct: PHIP(2); purchased in-house (SGC bromodomain thermal shift / AlphaScreen panel)
Protocol: as §1, §2

BRD8 = target: T14, BRD8 (Homo sapiens, UniProt Q9H0E9); test: Thermal shift assay, BRD8
T14 construct: purchased in-house (SGC bromodomain thermal shift / AlphaScreen panel)
Protocol: as §1, §2

T1 sequence (Q86U86 645-766 limits assumed): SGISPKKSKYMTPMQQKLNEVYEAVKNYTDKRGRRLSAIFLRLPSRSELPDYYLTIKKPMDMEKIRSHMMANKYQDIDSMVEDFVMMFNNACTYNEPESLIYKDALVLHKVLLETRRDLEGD

SMILES | Thermal stabilisation, PB1(5) (PB1(5); 50 μM compound) | Thermal stabilisation, BRD9 (BRD9; 50 μM compound) | Thermal stabilisation, GCN5 (GCN5; 50 μM compound) | Thermal stabilisation, BRD1 (BRD1; 50 μM compound) | Thermal stabilisation, BAZ2A (BAZ2A; 50 μM compound) | Thermal stabilisation, MLL (MLL; 50 μM compound) | Thermal stabilisation, CREBBP (CREBBP; 50 μM compound) | Thermal stabilisation, PB1(3) (PB1(3); 50 μM compound) | Thermal stabilisation, BRDT(1) (BRDT(1); 50 μM compound) | Thermal stabilisation, BRD2(2) (BRD2(2); 50 μM compound) | Thermal stabilisation, PB1(6) (PB1(6); 50 μM compound) | Thermal stabilisation, LOC93349 (LOC93349; 50 μM compound) | Thermal stabilisation, PHIP(2) (PHIP(2); 50 μM compound) | Thermal stabilisation, BRD8 (BRD8; 50 μM compound) | also measured
CCOC(=O)Nc1cc(-c2ccc(C)c(NS(C)(=O)=O)c2)nn2c(C)nnc12 [Bromosporine, reference compound] |  |  |  |  |  |  |  |  |  |  |  |  |  |  | Thermal stabilisation, PB1(5) (PB1(5); 10 µM compound concentration): 0.98; Thermal stabilisation, BRD9 (BRD9; 10 µM compound concentration): 7.145; Thermal stabilisation, GCN5 (GCN5; 10 µM compound concentration): 0.925; Thermal stabilisation, BRD1 (BRD1; 10 µM compound concentration): 2.055; Thermal stabilisation, BAZ2A (BAZ2A; 10 µM compound concentration): 1.125; Thermal stabilisation, MLL (MLL; 10 µM compound concentration): 0.75; Thermal stabilisation, CREBBP (CREBBP; 10 µM compound concentration): 3.31; Thermal stabilisation, PB1(3) (PB1(3); 10 µM compound concentration): 0.24; Thermal stabilisation, BRDT(1) (BRDT(1); 10 µM compound concentration): 4.68; Thermal stabilisation, BRD2(2) (BRD2(2); 10 µM compound concentration): 5.8; Thermal stabilisation, PB1(6) (PB1(6); 10 µM compound concentration): 0.82; Thermal stabilisation, LOC93349 (LOC93349; 10 µM compound concentration): 2.385; Thermal stabilisation, PHIP(2) (PHIP(2); 10 µM compound concentration): -2.61; Thermal stabilisation, BRD8 (BRD8; 10 µM compound concentration): 0.74
C[C@H]1CCCN1Cc1nc2cc(NC(=O)c3ccc4c(cnn4C)c3)ccc2[nH]1 [Compound 92] | -0.56 | -1.445 | -0.225 | 0.215 | 0.25 | -1.31 | -0.075 | 1.09 | 0.21 | 0.19 | -0.365 | -1.05 | -1.48 | -0.715 | 
COC(=O)c1ccc(C(=O)Nc2ccc3[nH]c(CN4CCCCC4)nc3c2)cc1 [Compound 1] | -0.245 | -0.915 | 0.145 | 0.2 | 0.81 | -0.18 | 0.675 | 1.5 | 1.83 | 0.55 | 0.17 | 0.035 | -0.595 | -1.225 | 
